Measured values as given in EP0811615A1, “1-Aryl-5-(substituted alkyl (thio) amido) pyrazoles and their use as pesticides” (RHONE-POULENC AGROCHIMIE, priority 1996, dated 1997).
Like-named read-outs stand apart in the source and are kept apart here.

Assays:
southern armyworm = assay: Southern armyworm foliar spray test on bean plants; type: in vivo; conditions: Spodoptera eridania, 120 h, read-out: pest mortality SAW
Experimental: (§1) For mite, aphid, southern armyworm, Mexican bean beetle, and tobacco budworm tests, a solution or suspension was prepared by adding 10 mg of the test compound to a solution of 160 mg of dimethylformamide, 838 mg of acetone, 2 mg of a 3:1 ratio of Triton X-172 : Triton X-152 (respectively, mainly anionic and nonionic low foam emulsifiers which are each anhydrous blends of alkylaryl polyether alcohols with organic sulfonates), and […] of water. The result was a concentration of 100 ppm of the test compound.
(§2) Southern armyworm: Potted bean plants, were placed on a revolving turntable and sprayed with 100 ml of the 100 ppm test compound formulation by use of a DeVilbiss spray gun set at 40 psig air pressure. As an untreated control, 100 ml of a water-acetone-DMF-emulsifier solution, containing no test compound, were also sprayed on plants. A treated control with a commercial technical compound, either cypermethrin or sulprofos, formulated in the same manner, was tested as a standard. When dry, the leaves were placed in plastic cups lined with moistened filter paper. Five randomly selected second instar southern armyworm larvae were introduced into each cup which was closed and held for five days. Larvae which were unable to move the length of the body, even upon stimulation by prodding, were considered dead.

Mexican bean beetle = Mexican bean beetle foliar spray test on bean plants; type: in vivo; conditions: Epilachna varivestis, 120 h, read-out: pest mortality MBB
Experimental: as §1
as §2, with “Mexican bean beetle:” for “Southern armyworm:”, “plants” for “plants,”, “formulation, sufficient to wet the plants to runoff,” for “formulation”, “Mexican bean beetle” for “southern armyworm”

housefly = assay: House fly bait test; type: in vivo; conditions: Musca domestica, read-out: pest mortality HF
Excerpt: For housefly tests, the formulation was initially prepared in a similar manner to the above, but in 16.3 g of water with corresponding adjustment of other components, providing a 200 ppm concentration. Final dilution with an equal volume of a 20% by weight aqueous solution of sucrose provided a 100 ppm concentration of the test compound. When necessary, sonication was provided to insure complete dispersion.
House fly: Four to six day old adult house flies were reared according to the specifications of the Chemical Specialties Manufacturing Association (Blue Book, McNair-Dorland Co., N.Y. 1954; pages 243-244, 261) under controlled conditions. The flies were immobilized by anesthetizing with carbon dioxide and twenty five immobilized individuals, males and females, were transferred to a cage consisting of a standard food strainer and a wrapping-paper-covered surface. Ten ml of the 100 ppm test compound formulation were added to a soufflé cup containing an absorbent cotton pad. As an untreated control, 10 ml of a water-acetone-DMF-emulsifier-sucrose solution, containing no test compound, were applied in a similar manner. A treated control with a commercial technical compound, malathion, formulated in the same manner, was tested as a standard. The bait cup was introduced inside the food strainer prior to admitting the anesthetized flies.

tobacco budworm = assay: Tobacco budworm foliar spray test on cotton plants; type: in vivo; conditions: Heliothis virescens, 120 h, read-out: pest mortality TBW
Experimental: as §1
Tobacco budworm: Potted cotton plants were placed on a revolving turntable and sprayed with 100 ml of the 100 ppm test compound formulation by use of a DeVilbiss spray gun set at 40 psig air pressure. As an untreated control, 100 ml of a water-acetone-DMF-emulsifier solution, containing no test compound, were also sprayed on plants. A treated control with a commercial technical compound, either cypermethrin or sulprofos, formulated in the same manner, was tested as a standard. When dry, the leaves were placed in plastic dishes containing a piece of filter paper and a moistened dental wick. One randomly selected second instar tobacco budworm larva was then introduced into each cup which was closed and held for five days. Larvae unable to move the length of their body, even upon stimulation by prodding, were considered dead.

[1] = system: southern root-knot nematode; assay: Southern root-knot nematode soil test on tomato; type: in vivo; parameters: dose or concentration left out as unconfirmed; conditions: Meloidogyne incognita; Soil Conc. at 21 Kg/ha; second stage juveniles; read-out: pest mortality Nema (J2)
Experimental: For southern root-knot nematode and systemic tests for southern armyworm, cotton aphid, tobacco budworm and greenbug, a stock solution or suspension was prepared by adding 15 mg of the test compound to 250 mg of dimethylformamide, 1250 mg of acetone and 3 mg of the emulsifier blend referenced above. Water was then added to provide a test compound concentration of 150 ppm. When necessary, sonication was provided to insure complete dispersion.
Southern root-knot nematode: Infected roots of tomato plants, containing egg masses of southern root-knot nematode, were removed from a stock culture and cleaned of soil by shaking and washing with tap water. The nematode eggs were separated from the root tissue and rinsed with water. Samples of the egg suspension were placed on a fine screen over a receiving bowl, in which the water level was adjusted to be in contact with the screen. From the bowl, juveniles were collected on a fine screen. The bottom of a cone-shaped container was plugged with coarse vermiculite and then filled to within 1.5 cm of the top with about a 200 ml volume of pasteurized soil. Then into a hole made in the center of the soil in the cone was pipetted an aliquot of the 150 ppm test compound formulation. A treated control with a commercial technical compound, fenamifos, formulated in a similar manner, was tested as a standard. As an untreated control, an aliquot of a water-acetone-DMF-emulsifier solution, containing no test compound, was applied in a similar manner. Immediately after treatment of the soil with the test compound there were added to the top of each cone 1000 second stage juvenile southern root-knot nematodes. After 3 days, a single healthy tomato seedling was then transplanted into the cone. The cone, containing the infested soil and tomato seedling, was kept in the greenhouse for 3 weeks. At the termination of the test, […], […]

[2] = system: buckthorn or cotton aphid; assay: Buckthorn or cotton aphid foliar spray test; type: in vivo, Aphis nasturtii / Aphis gossypii; conditions: Aphis gossypii; foliar application at 100 ppm; counted after one day (buckthorn aphid) or three days (cotton aphid); read-out: pest mortality BA*/CA
Experimental: as §1
Buckthorn or cotton aphid: Adult and nymphal stages of buckthorn or cotton aphid were reared on potted dwarf nasturtium or cotton plants, respectively. The potted plants (one pot per compound tested) infested with 100-150 aphids, were placed on a revolving turntable and sprayed with 100 ml of the 100 ppm test compound formulation by use of a DeVilbiss spray gun set at 40 psig air pressure. As an untreated control, 100 ml of a water-acetone-DMF-emulsifier solution, containing no test compound, were also sprayed on infested plants. A treated control with a commercial technical compound, malathion or cyhalothrin, formulated in the same manner, was tested as a standard. After spraying, the pots were stored for one day on buckthorn aphid or three days for cotton aphid, after which the dead aphids were counted.

[3] = foliar application at 100 ppm, second instar larvae, held five days
[4] = bait application at 100 ppm, adult flies, after 24 hours

CC(C)OCC(=O)Nc1c(SC(F)(F)F)c(C#N)nn1-c1c(Cl)cc(C(F)(F)F)cc1Cl [Compound 20]
70 to 100%: mortality at 100 ppm (southern armyworm; [3]) | mortality at 100 ppm (Mexican bean beetle; [3]) | mortality at 100 ppm (housefly; [4]) | mortality at 100 ppm (tobacco budworm; [3])

COC(C(=O)Nc1c([S+]([O-])C(F)(Cl)Cl)c(C#N)nn1-c1c(Cl)cc(C(F)(F)F)cc1Cl)C(C)C (centres unmarked) [Compound 29]
70 to 100%: mortality at 100 ppm (southern armyworm; [3]) | mortality at 100 ppm (Mexican bean beetle; [3])

CC(C)COC(C)C(=O)Nc1c([S+]([O-])C(F)(F)F)c(C#N)nn1-c1c(Cl)cc(C(F)(F)F)cc1Cl (centres unmarked) [Compound 44]
70 to 100%: mortality at 100 ppm (southern armyworm; [3]) | mortality at 100 ppm (Mexican bean beetle; [3]) | mortality at 100 ppm (housefly; [4])

CCOC(C)C(=O)Nc1c(SC(F)(F)F)c(C#N)nn1-c1c(Cl)cc(C(F)(F)F)cc1Cl (centres unmarked) [Compound 39]
70 to 100%: mortality at 100 ppm (southern armyworm; [3]) | mortality at 100 ppm (Mexican bean beetle; [3]) | mortality at 100 ppm (housefly; [4]) | mortality [1]

CCOCC(=O)Nc1c([S+]([O-])C(F)(F)F)c(C#N)nn1-c1c(Cl)cc(C(F)(F)F)cc1Cl (centres unmarked) [Compound 8]
70 to 100%: mortality at 100 ppm (southern armyworm; [3]) | mortality at 100 ppm (Mexican bean beetle; [3]) | mortality at 100 ppm (housefly; [4]) | mortality at 100 ppm (tobacco budworm; [3]) | mortality [1]

COCC(=O)Nc1c([S+]([O-])C(F)(Cl)Cl)c(C#N)nn1-c1c(Cl)cc(C(F)(F)F)cc1Cl (centres unmarked) [Compound 17]
70 to 100%: mortality at 100 ppm (southern armyworm; [3]) | mortality at 100 ppm (housefly; [4]) | mortality at 100 ppm (tobacco budworm; [3]) | mortality [1]

CCOCC(=O)Nc1c([S+]([O-])C(F)(Cl)Cl)c(C#N)nn1-c1c(Cl)cc(C(F)(F)F)cc1Cl (centres unmarked) [Compound 18]
70 to 100%: mortality at 100 ppm (southern armyworm; [3]) | mortality at 100 ppm (Mexican bean beetle; [3]) | mortality at 100 ppm (tobacco budworm; [3]) | mortality [1]

COC(C(=O)Nc1c(SC(F)(F)F)c(C#N)nn1-c1c(Cl)cc(C(F)(F)F)cc1Cl)c1ccccc1 (centres unmarked) [Compound 22]
70 to 100%: mortality at 100 ppm [2] | mortality at 100 ppm (southern armyworm; [3]) | mortality at 100 ppm (housefly; [4]) | mortality at 100 ppm (tobacco budworm; [3])

CCOC(C)C(=O)Nc1c(SC(F)(Cl)Cl)c(C#N)nn1-c1c(Cl)cc(C(F)(F)F)cc1Cl (centres unmarked) [Compound 45]
70 to 100%: mortality at 100 ppm (southern armyworm; [3]) | mortality at 100 ppm (Mexican bean beetle; [3]) | mortality at 100 ppm (housefly; [4]) | mortality at 100 ppm (tobacco budworm; [3])

COCC(=O)Nc1c([S+]([O-])C(F)(F)F)c(C#N)nn1-c1c(Cl)cc(C(F)(F)F)cc1Cl (centres unmarked) [Compound 7]
70 to 100%: mortality at 100 ppm (southern armyworm; [3]) | mortality at 100 ppm (Mexican bean beetle; [3]) | mortality at 100 ppm (housefly; [4]) | mortality at 100 ppm (tobacco budworm; [3]) | mortality [1]

COCC(=O)Nc1c(S(=O)(=O)C(F)(F)F)c(C#N)nn1-c1c(Cl)cc(C(F)(F)F)cc1Cl [Compound 11]
70 to 100%: mortality at 100 ppm (southern armyworm; [3]) | mortality at 100 ppm (Mexican bean beetle; [3]) | mortality at 100 ppm (housefly; [4]) | mortality [1]

N#Cc1nn(-c2c(Cl)cc(C(F)(F)F)cc2Cl)c(NC(=O)CO)c1SC(F)(F)F [Compound 32]
70 to 100%: mortality at 100 ppm (southern armyworm; [3]) | mortality at 100 ppm (housefly; [4]) | mortality [1]

CC(C)COCC(=O)Nc1c(SC(F)(F)F)c(C#N)nn1-c1c(Cl)cc(C(F)(F)F)cc1Cl [Compound 35]
70 to 100%: mortality at 100 ppm (southern armyworm; [3]) | mortality at 100 ppm (Mexican bean beetle; [3]) | mortality at 100 ppm (housefly; [4])

COCC(=O)Nc1c(SC(F)(F)F)c(C#N)nn1-c1c(Cl)cc(C(F)(F)F)cc1Cl [Compound 1, 1-(2,6-dichloro-4-trifluoromethylphenyl)-3-cyano-4-trifluoromethylsulfenyl-5-(methoxyacetamido)pyrazole]
70 to 100%: mortality at 100 ppm (southern armyworm; foliar) | mortality at 100 ppm (Mexican bean beetle; foliar) | mortality at 100 ppm (housefly; 24 h) | mortality at 100 ppm (tobacco budworm; foliar)

COCCOCC(=O)Nc1c([S+]([O-])C(F)(F)F)c(C#N)nn1-c1c(Cl)cc(C(F)(F)F)cc1Cl (centres unmarked) [Compound 9]
70 to 100%: mortality at 100 ppm (southern armyworm; [3]) | mortality at 100 ppm (Mexican bean beetle; [3]) | mortality at 100 ppm (housefly; [4]) | mortality at 100 ppm (tobacco budworm; [3]) | mortality [1]

COCCOCC(=O)Nc1c(SC(F)(F)F)c(C#N)nn1-c1c(Cl)cc(C(F)(F)F)cc1Cl [Compound 3]
70 to 100%: mortality at 100 ppm (southern armyworm; [3]) | mortality at 100 ppm (Mexican bean beetle; [3]) | mortality at 100 ppm (housefly; [4]) | mortality at 100 ppm (tobacco budworm; [3])

COC(C)C(=O)Nc1c(SC(F)(Cl)Cl)c(C#N)nn1-c1c(Cl)cc(C(F)(F)F)cc1Cl (centres unmarked) [Compound 26]
70 to 100%: mortality at 100 ppm (southern armyworm; [3]) | mortality at 100 ppm (housefly; [4]) | mortality at 100 ppm (tobacco budworm; [3])

CCOCC(=O)Nc1c(S(=O)(=O)C(F)(F)F)c(C#N)nn1-c1c(Cl)cc(C(F)(F)F)cc1Cl [Compound 12]
70 to 100%: mortality at 100 ppm (southern armyworm; [3]) | mortality at 100 ppm (housefly; [4]) | mortality at 100 ppm (tobacco budworm; [3]) | mortality [1]

COC(C)C(=O)Nc1c([S+]([O-])C(F)(Cl)Cl)c(C#N)nn1-c1c(Cl)cc(C(F)(F)F)cc1Cl (centres unmarked) [Compound 28]
70 to 100%: mortality at 100 ppm (southern armyworm; [3]) | mortality at 100 ppm (Mexican bean beetle; [3]) | mortality at 100 ppm (housefly; [4]) | mortality at 100 ppm (tobacco budworm; [3]) | mortality [1]

COCCOCCOCC(=O)Nc1c(SC(F)(F)F)c(C#N)nn1-c1c(Cl)cc(C(F)(F)F)cc1Cl [Compound 4]
70 to 100%: mortality at 100 ppm (southern armyworm; [3]) | mortality at 100 ppm (housefly; [4]) | mortality at 100 ppm (tobacco budworm; [3])

CCCCOC(C)C(=O)Nc1c(SC(F)(F)F)c(C#N)nn1-c1c(Cl)cc(C(F)(F)F)cc1Cl (centres unmarked) [Compound 42]
70 to 100%: mortality at 100 ppm (southern armyworm; [3]) | mortality at 100 ppm (housefly; [4]) | mortality [1]

CCCCCCCOCC(=O)Nc1c(SC(F)(F)F)c(C#N)nn1-c1c(Cl)cc(C(F)(F)F)cc1Cl [Compound 34]
70 to 100%: mortality at 100 ppm (southern armyworm; [3]) | mortality at 100 ppm (housefly; [4]) | mortality [1]
